Data on 1 molecule can be found in PMC10138657, “D-Xylose Blocks the Broad Negative Regulation of XylR on Lipid Metabolism and Affects Multiple Physiological Characteristics in Mycobacteria” (International Journal of Molecular Sciences, 2023).

In the assay the target is T1, XylR (Mycolicibacterium smegmatis, UniProt A0R508).
T1 construct: gene MSMEG_6022
T1 sequence (A0R508 1-393): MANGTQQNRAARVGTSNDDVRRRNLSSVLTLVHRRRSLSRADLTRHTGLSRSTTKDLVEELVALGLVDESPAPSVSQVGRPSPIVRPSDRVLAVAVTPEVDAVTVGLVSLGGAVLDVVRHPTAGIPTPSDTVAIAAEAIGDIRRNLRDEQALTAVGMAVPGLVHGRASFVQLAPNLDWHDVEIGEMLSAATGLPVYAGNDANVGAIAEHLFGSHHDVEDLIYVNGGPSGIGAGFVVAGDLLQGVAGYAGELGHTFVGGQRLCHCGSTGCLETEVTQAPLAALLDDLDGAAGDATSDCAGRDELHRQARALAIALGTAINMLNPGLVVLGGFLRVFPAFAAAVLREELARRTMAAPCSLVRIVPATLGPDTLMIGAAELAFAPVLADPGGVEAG
As to the kind of experiment: isothermal titration calorimetry. The class given is binding. The settings on record: 20 mM Tris-base, 100 mM NaCl, 5 mM MgCl2, pH 7.5; 35 μM XylR; independent-site model, n = 1.09 ± 0.04. (In ITC the heat of successive injections is recorded.)

By Kd is commonly meant the free concentration of one partner at which half of the binding sites on the other are occupied at equilibrium, for simple one-to-one binding. High values mean lower affinity, low ones higher affinity.

On to `OC1OC[C@@H](O)[C@H](O)[C@H]1O` (stereo partly drawn) [D-xylose], for which the Kd amounted to 4.72 ± 0.6 µM.
